Results from US20090111177A1, “Maintenance of Embryonic Stem Cells by the GSK-3 Inhibitor 6-Bromoindirubin-3'-Oxime” (THE ROCKEFELLER UNIVERSITY, priority 2003, published 2009).

How the values were obtained:
[1] = test system: canonical Wnt pathway (TCF binding sites, TopFlash); assay: TopFlash luciferase reporter assay in 293 cells; type: cell-based; details: 293 human kidney epithelial cells; micromolar concentrations; data not shown
Method: (§1) Luciferase assay. […] Test compounds were added 24 hrs after transfection. Following incubation for 24 hrs, cells were harvested, and analyzed by the dual luciferase reporter assay system (Promega) using Lumat (Berthold Technologies). Each value was standardized by Renilla luciferase activity.
The canonical Wnt signal occurs through binding of the Wnt protein to the Frizzled receptor at cell surface. It is followed by inactivation of GSK-3, leading to accumulation of β-catenin in the nucleus that activates the transcription of Wnt target genes in collaboration with TCFs^18,19. Alternatively, Wnt signaling can be activated by direct, intracellular inhibition of the GSK-3 function using specific inhibitors^20. […] First we examined whether mouse and human ESCs were capable of transducing Wnt signaling under the influence of 6-bromoindirubin-3′-oxime. […] We then evaluated expression of β-catenin at the cellular level as a read-out of the activation status of the canonical Wnt pathway in HESCs.

Rex-1 promoter [2] = assay: Rex-1 luciferase reporter assay in CJ7 cells; type: cell-based, mouse
Description: Nat Biotechnol 20, 87-90), a small fragment containing the TCF binding sites and the cFos promoter in pTopFlash was excised by XbaI digestion, and cloned into pcDNA3-Venus in which Venus was introduced into the multiple cloning site between BamHI and EcoRI of the pcDNA3 vector (Invitrogen) whose CMV promoter was eliminated by BglII and HindIII digestion. […] To generate the Rex-1-Venus reporter construct, the Rex-1 promoter region was cloned into pcDNA3-Venus.
as §1

Rex-1 promoter [3] = assay: Rex-1 YFP reporter line CJRex-Y (imaging / FACS); type: cell-based, mouse; details: CJRex-Y cells, 5 d
Method: Generation of stable mouse ES lines. CJ7 ES cells were transfected with pRex-1-Venus, pTY or pCAG-HygEGFP by using Lipofectamine 2000 (Invitrogen) followed by G418 (Invitrogen) selection at 200 μg/ml (for CJRex-Y or CJ-TY) or hygromycine (Invitrogen) selection at 600 μg/ml (for CJ-GFP). Two weeks after the drug selection, a number of single colonies were picked up, expanded and used for the further analyses.
FACS analysis of MESCs. We cultured CJRex-Y cells at a low density (500 cells/cm^2) on gelatin-coated 10 cm dishes in mouse ES cell medium alone, medium containing LIF, medium conditioned from wild type L cells or medium conditioned from Wnt3a-L cells (ATCC) for 5 days. The Wnt3a conditioned medium was prepared according to the provider's protocol. Cells were harvested, resuspended in mouse ES medium and subjected to FACS analysis using FACSVantage SE system (BD Biosciences).

[4] = test system: Oct-3/4 and Nanog transcripts; assay: Northern analysis of HESCs; type: cell-based, human; details: 7 d
Method: Northern analysis. Total RNA was isolated from cells by using Qiashredder and RNAeasy mini kit (Qiagen). The extracted RNA sample was quantified by UV spectrophotometer, and qualified by the RNA Nano Lab chip (Agilent Technologies). Ten μg of total RNA was electrophoresed on 1% agarose/formaldehyde gel and transferred onto a nylon membrane (Stratagene). Probes specific for human Oct-4 and human Nanog were prepared by RT-PCR using gene specific primer pairs (shown below) and the template cDNA generated from undifferentiated H1 cells, and radio-labeled with ^32P-dCTP by Prime-it probe labeling kit (Stratagene). The membrane was hybridized with the labeled probe using Perfecthybri (Sigma) and subjected to detection by Phosphor Imager (Amersham Biosciences).

H1 cells = assay: Differentiation of HESCs into neurons on PA6 stromal cells; type: cell-based, human; details: comparable to conditioned medium-treated cells
Description: Differentiation of ES cells into neurons. The PA6 stromal cell line (RIKEN) was used for the co-culture system (Kawasaki et al., 2002, Generation of dopaminergic neurons and pigmented epithelia from primate ES cells by stromal cell-derived inducing activity. Proc Natl Acad Sci USA 99, 1580-1585). H1 cell colonies grown on Matrigel under different conditions for 7 d were harvested and cultured (100˜200 cells/clump, approximately 5 clumps/well of a 12-well plate) on PA6 stromal cells in 90% Knockout-Dulecco's modified Eagle's medium, 10% KSR, 1 mM L-glutamine, 1% non-essential amino acids, 0.1 mM β-mercaptoethanol for 3 weeks as previously described (Sato et al., 2003, Molecular signature of human embryonic stem cells and its comparison with the mouse. Dev Biol 260, 404-413). At the end of the culture period, cells were stained with a neuron-specific antibody, Tuj-1, as shown below. The number of wells containing Tuj-1 positive neurons was determined in each condition in repeated experiments.

CJ-GFP cells (MESCs) [5] = assay: Blastocyst injection of treated CJ-GFP cells, chimera generation; type: in vivo, mouse
Method: Blastocyst injection. We cultured CJ-GFP cells at a low density (500 cells/cm^2) on gelatin-coated 10 cm dishes in medium containing 6-bromoindirubin-3′-oxime 1 μM for 5 d. 6-bromoindirubin-3′-oxime-treated cells (approximately 10 to 15 cells per blastocyst) were microinjected into each blastocyst and transferred into surrogate mice in the C57Bl/6 background. Mid-gestation embryos were recovered and subjected to tissue sectioning. Chimerism of live offspring was determined by evaluation of their mixed coat color.
Immunofluorescence. Cells were fixed in 4% paraformaldehyde for 20 min at room temperature and incubated overnight at 4° C. with primary antibodies against Oct-4 (BD Biosciences), β-catenin (BD Biosciences), Tuj-1 (BAbCO), cytokeratin (Sigma), glial fibrillary acidic protein, GFAP, (Dako), smooth muscle actin (Research Diagnostics Inc), α-fetoprotein (α-FP, Cell Sciences) and Tromal (Developmental Studies Hybridoma Bank). […] For the quantitative image analysis, fluorescent images from triplicate samples were taken by the Discovery1 system (Universal Imaging Corporation). The fluorescent objects were selected by the threshold function and evaluated in five regions of each well by quantification of pixel intensities and the object size by using MetaMorph software (Universal Imaging Corporation).

CJ-GFP cells (MESCs) [6] = assay: Low-density culture of CJ-GFP MESCs without LIF, morphology; type: cell-based, mouse; details: 1 μM; 7 d plus 5 d at low density; data not shown for Me analogue
Method: Teratoma formation. We grew CJ-GFP cells at a low density (500 cells/cm^2) on gelatin-coated 10 cm dishes in medium containing 6-bromoindirubin-3′-oxime 1 μM for 7 d, then passaged cells at the same density and cultured under the same condition another 5 d to further enforce differentiation of cells.

For `O=C1Nc2cc(Br)ccc2/C1=C1/Nc2ccccc2/C1=N\O` [6-bromoindirubin-3′-oxime], the TopFlash reporter activity [1] was “robustly upregulated the reporter activity”, the Rex-1 promoter activity (Rex-1 promoter [2]; CJ7 cells, compared to LIF-treated cells) was “substantial upregulation” and the “Rex-1 transcriptional activation with dominant negative TCF-3 construct” value (Rex-1 promoter [2]; cells transfected with dominant negative TCF-3) was “largely abolished”. For the same compound, the “colony morphology / cell shape” value (Rex-1 promoter [3]; FIG. 3b) was “more compact than those observed in LIF-treated cells”, the “Rex-1 transcriptional (YFP reporter) activity” value (Rex-1 promoter [3]; absence of LIF) was “strong transcriptional activity” and the Nanog transcript level [4] was “substantial level of Nanog transcripts was preserved”. The Oct-3/4 transcript level ([4]; compared to conditioned medium-treated cells) was “substantial level of the Oct-3/4 transcript was maintained”, the “neurogenesis on stromal feeders (Tuj-1)” value (H1 cells) was “robust neurogenesis” and the “coat-color chimerism of live offspring” value (CJ-GFP cells (MESCs) [5]; initial assessment, new-born animals) was “two of five new-born animals were chimeric”. The “incorporation of treated cells into embryonic tissues” value (CJ-GFP cells (MESCs) [5]; mid-gestation stage, immunohistochemistry, FIG. 6) was “incorporated into several embryonic tissues” and the “colony morphology of MESCs without LIF” value (CJ-GFP cells (MESCs) [6]) was “still formed round tight colonies”.
